Source: PubChem BioAssay (NCI)
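48-hour exposure; five concentrations; linearly interpolated endpoints. GI50 = concentration required for 50% inhibition of growth. TGI marks complete inhibition of growth.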 Where a SMILES comes first, the peptide text is derived from it. The star is where a group is joined. Palmitoyl = CCCCCCCCCCCCCCCC(=O)*

Experiments:
Assay in all cases: NCI tumour cell line growth inhibition, 48 h
[1] = system: NCI-H23 lung
[2] = system: BT-549 breast
[3] = system: SN12C renal
[4] = system: OVCAR-5 ovarian
[5] = system: OVCAR-8 ovarian
[6] = system: HOP-92 NSCLC
[7] = system: HS 578T breast
[8] = system: SR leukemia
[9] = system: EKVX NSCLC
[10] = system: SK-MEL-2 melanoma

COc1cccc(N2N=C3c4ccccc4-n4c(nc5ccccc54)C3C2N)c1 (configuration not stated)
TGI [1]: > 100 µM
TGI [2]: > 100 µM
TGI [3]: > 100 µM
TGI [4]: > 100 µM
TGI [5]: > 100 µM
TGI [6]: > 100 µM
TGI [7]: > 100 µM
TGI [8]: > 100 µM
TGI [9]: > 100 µM
TGI [10]: > 100 µM

Cn1c(=O)c2[nH]c(N/N=C3/SCC(=O)N3Cc3ccccc3)nc2n(C)c1=O
TGI [1]: > 100 µM
TGI [2]: > 100 µM
TGI [3]: > 100 µM
TGI [4]: > 100 µM
TGI [5]: > 100 µM
TGI [6]: 87.7 µM
TGI [7]: > 100 µM
TGI [8]: 82.3 µM
TGI [9]: > 100 µM
TGI [10]: > 100 µM

O=C1O/C(=C\c2ccc(O)cc2)C(c2ccc(O)c(Cl)c2)=C1Br
TGI [1]: 59.2 µM
TGI [2]: 23.8 µM
TGI [3]: 46.4 µM
TGI [4]: 35.4 µM
TGI [5]: 73.8 µM
TGI [6]: 32.1 µM
TGI [7]: 59.1 µM
TGI [8]: 21 µM
TGI [9]: 40.7 µM
TGI [10]: 28.5 µM

COc1cc(O)c2c(c1)C(O)C(O)CC1OC1C(=O)/C=C/CC(C)OC2=O (configuration not stated)
TGI [1]: 12 µM
TGI [2]: 6.1 µM
TGI [3]: 11.8 µM
TGI [4]: 31 µM
TGI [5]: 25 µM
TGI [6]: 2.72 µM
TGI [7]: 59.5 µM
TGI [8]: > 45.4 µM
TGI [9]: 35.8 µM
TGI [10]: 13.5 µM

CCOP(=O)(OCC)C(F)(F)CC1CCCCC1
TGI [1]: > 10 µM
TGI [2]: > 10 µM
TGI [3]: > 10 µM
TGI [4]: > 10 µM
TGI [5]: > 10 µM
TGI [6]: > 10 µM
TGI [7]: > 10 µM
TGI [8]: > 10 µM
TGI [9]: > 10 µM
TGI [10]: > 10 µM

COCCCN1C(=O)C2c3[nH]c4ccccc4c3C3CCC(C(C)(C)C)CC3C2C1=O (configuration not stated)
TGI [1]: 82.6 µM
TGI [2]: > 100 µM
TGI [3]: 50 µM
TGI [5]: > 100 µM
TGI [7]: 87.6 µM
TGI [8]: 80.6 µM
TGI [9]: > 100 µM

Cc1cnc2[nH]c(-c3ccccc3)cc(=O)c2c1
TGI [1]: > 13.5 µM
TGI [2]: > 100 µM
TGI [3]: > 14 µM
TGI [4]: > 100 µM
TGI [5]: 0.629 µM
TGI [6]: > 42.2 µM
TGI [7]: 0.0595 µM
TGI [8]: > 100 µM
TGI [9]: > 82.2 µM
TGI [10]: > 35.7 µM

CCCCCCCCCCCCCCCC(=O)NC(CCCCN)C(=O)NCC(=O)NC(Cc1ccccc1)C(=O)N1CCCC1C(=O)NC(CO)C(=O)NC(Cc1ccc(O)cc1)C(=O)NC(CCCCN)C(=O)NC(CC(C)C)C(=O)NC(CCCN=C(N)N)C(=O)N1CCCC1C(=O)NCC(N)=O (configuration not stated) (Palmitoyl-KGFPSYKLRPG-NH2; configuration not given here)
GI50 [1]: 23.9 µM
TGI [1]: 55.6 µM
GI50 [2]: 24.1 µM
TGI [2]: 50.4 µM
GI50 [4]: 20.7 µM
TGI [4]: 48.1 µM
GI50 [5]: 21.9 µM
TGI [5]: 52.8 µM
GI50 [6]: 19.3 µM
TGI [6]: 45.4 µM
GI50 [7]: 31.2 µM
TGI [7]: > 100 µM
GI50 [8]: 17.7 µM
TGI [8]: 39.4 µM
GI50 [9]: 18.8 µM
TGI [9]: 44 µM
GI50 [10]: 43.5 µM
TGI [10]: > 100 µM

Cc1ccc(S(=O)(=O)NC(=O)NS(=O)(=O)O)cc1
TGI [1]: > 100 µM
TGI [2]: > 100 µM
TGI [3]: > 100 µM
TGI [4]: > 100 µM
TGI [5]: > 100 µM
TGI [6]: > 100 µM
TGI [7]: > 100 µM
TGI [8]: > 100 µM
TGI [10]: > 100 µM

COc1ccc(-c2c(C(C)=O)c(C)n(C3OC(CO)C(O)C(O)C3O)c(=S)c2C#N)cc1 (configuration not stated)
TGI [1]: > 100 µM
TGI [2]: > 100 µM
TGI [3]: > 100 µM
TGI [4]: > 100 µM
TGI [5]: > 100 µM
TGI [7]: > 100 µM
TGI [8]: > 100 µM
TGI [9]: > 100 µM
